The target in one assay is RNA molecules. To be noted: specific RNA molecules; cited from earlier work.
Another assay deals with anti-dig. The experiment in a line: Detection of hapten on TANTAGEL beads with anti-dig and AP-coupled secondary antibody. To be noted: 100% coupling on the beads. In kind it is binding, mouse. The protocol: Ninety (90) micrometer TANTAGEL-amine beads were mixed with dig-NHS ester at different concentrations to covalently label the beads with dig. Dig-NHS was added in amounts sufficient to label 100%, 10%, 1%, 0.1%, 0.01% and 0.001% of the amino groups. The remaining amino groups were capped with acetic anhydride, and the beads were washed.
Dig-labeled beads were incubated with anti-dig (1 microgram/ml) in the presence of BSA and buffer. The beads were washed, incubated with alkaline phosphatase (AP)-coupled goat anti-mouse antibody, and washed again. Then a chromogenic precipitating substrate (commercially available) for detecting AP was added. Blue color on the beads indicates the presence of AP, and thus effective detection of the dig hapten by antibody.

The values that follow come from patent US6541203B2, “Detecting structural or synthetic information about chemical compounds” (President and Fellows of Harvard College, priority 1998, dated 2003).

Consider `N=C(N)NCCC[C@@H](N)C(=O)O` [D-arginine], for which the Kd on RNA molecules was 1700 nM.

As to `c1cc2ccc3cccc4ccc(c1)c2c34` [pyrene], the Staining of beads entry in the assay with anti-dig is on record as “no staining”.

As usually defined, the Kd is the concentration at which binding is half-saturated.
